Laboratory results published in US9895338B1, “Cobalt-polypyridyl complex for treatment of cancer, a pharmaceutical composition and a kit comprising it” (Macau University of Science and Technology, priority 2016, dated 2018).

Legend:
[1] = tested on: human H1299 lung cancer cells; conditions: H1299, sub-lethal doses 0.2, 0.5, 1.0 μM
Protocol: The cancer cell invasion assay was performed in a Cell Invasion Chamber, a 24-well tissue culture plate with cell culture inserts that contain an […] pore size polycarbonate membrane over a thin layer of dried ECMatrix™ (CHEMICON).
To determine the inhibitory effect of cobalt-polypyridyl complexes of the present invention in cancer cell invasion, human H1299 lung cancer cells with well-known cell invasion ability were treated with the cobalt-polypyridyl complex of Formula (IV) in its sub-lethal (non-toxic) doses.

[2] = tested on: OV2008 cervical cancer cells; test: MTT cytotoxicity, OV2008 (cisplatin-sensitive); type: cell-based; conditions: 72 h
Protocol: (§1) All prepared cobalt-polypyridyl complexes were dissolved in DMSO at a final concentration of 50 mmol/L and stored at −20° C. before use. Cytotoxicity was assessed by using the 3-(4,5-dimethylthiazol-2-yl)-2,5-diphenyltetrazolium bromide (MTT) (5.0 mg/ml) assay as previously described (Wong, V. K. et al., Cell Death Dis, 2013, 4, e720). Briefly, 4×10^3 cells per well were seeded in 96-well plates before drug treatments. After overnight culture, the cells were then exposed to different concentrations of selected compounds (0.039-100 μmol/L) for 72 h. Cells without drug treatment were used as control. Subsequently, MTT (10 μL) solution was added to each well and incubated at 37° C. for 4 h followed by the addition of 100 μL solubilization buffer (10% SDS in 0.01 mol/L HCl) and overnight incubation. A570 nm was then determined in each well on the next day. The percentage of cell viability was calculated using the following formula: Cell viability (%)=Atreated/Acontrol×100. Data were obtained from three independent experiments.
(§2) Cisplatin-sensitive or -resistant A2780, OV2008 and C13 cancer cells were provided by Prof. Benjamin Tsang (Department of Obstetrics and Gynecology and Department of Cellular and Molecular Medicine, University of Ottawa, Canada). HCT116 p53^+/+ and p53^−/− isogenic human colon cancer cells were provided by Professor Bert Vogelstein (Ludwig Center at Johns Hopkins, Howard Hughes Medical Institute, USA). All media were supplemented with 10% fetal bovine serum and the antibiotics penicillin (50 U/ml) and streptomycin (50 μg/ml; Invitrogen, Paisley, Scotland, UK). All cell cultures were incubated at 37° C. in a 5% humidified CO2 incubator.

[3] = tested on: endogenous LC3-II puncta formation in HeLa cancer cells; conditions: HeLa, 5, 10, 20 μM
Protocol: The detection of endogenous LC3 was conducted using immunofluorescence staining method as described below. HeLa cancer cells treated with the cobalt-polypyridyl complex of Formula (IV) (with PF6^− as counterion) on cover slips were fixed with 4% paraformaldehyde (Sigma) for 20 min at room temperature and then rinsed with PBS. Coverslips were immersed in methanol at room temperature for 2 min. After washing with PBS, the cells were then incubated with anti-LC3 (1:200) in TBST (100 mM TrisHCl, pH 7.5, 150 mM NaCl, 0.05% Tween 20 and 5% BSA) overnight at 4° C. […] The coverslips were then mounted with FluorSave™ mounting media (Calbiochem, San Diego, Calif., USA) for fluorescence imaging and localization of LC3 autophagosomes were captured under the API Delta Vision Live-cell Imaging System (Applied Precision Inc., GE Healthcare Company, Washington, USA). To quantify autophagy, guidelines of autophagy quantitation were followed (Klionsky, D. J. et al., Autophagy, 2016, 12, 1-222). The percentage of cells with autophagic induction was calculated by the number of the cells with increased formation of punctate LC3 fluorescence dots (≧10 dots/cell) over the total number of immunofluorescence-positive cells in the same field. A minimum of 1000 cells from randomly selected fields were scored.

[4] = tested on: Taxol-resistant MCF-7 cancer cells; test: MTT cytotoxicity, taxol-resistant MCF-7; type: cell-based
Protocol: as §1
(§3) All cells were obtained from the American Type Culture Collection (Rockville, Md., USA) unless otherwise specified. Immortalized wild-type and Atg7-deficient mouse embryonic fibroblasts (MEFs) were provided by Professor Masaaki Komatsu (Juntendo University, School of Medicine, Japan). Taxol-resistant types of A549, MCF-7, HCT-8 cancer cells, cisplatin-resistant SGC7901 cancer cells were purchased from KeyGEN BioTECH, China.

[5] = tested on: cisplatin-resistant A2780 ovarian cancer cells; test: MTT cytotoxicity, cisplatin-resistant A2780; type: cell-based
Protocol: as §1, §2

MCF-7 (breast cancer) = test: MTT cytotoxicity assay, MCF-7; type: cell-based; conditions: MCF-7, MTT, 72 h
Protocol: as §1, with “experiments. Cells include HeLa cells (cervical cancer), MCF-7 (breast cancer), H1299, H1975, A549 and LLC-1 (lung cancer), HepG2 and Hep3B (liver cancer) and LO2 (normal human hepatocytes).” for “experiments.”

[6] = tested on: cisplatin-sensitive SGC-7901 gastric cancer cells; test: MTT cytotoxicity, cisplatin-sensitive SGC-7901; type: cell-based; conditions: SGC-7901, MTT, 72 h
Protocol: as §1

[7] = tested on: HeLa cells (cervical cancer); test: MTT cytotoxicity assay, HeLa; type: cell-based; conditions: 72 h
Protocol: as §1, with “experiments. Cells include HeLa cells (cervical cancer), MCF-7 (breast cancer), H1299, H1975, A549 and LLC-1 (lung cancer), HepG2 and Hep3B (liver cancer) and LO2 (normal human hepatocytes).” for “experiments.”

Hep 3B (liver cancer) = test: MTT cytotoxicity assay, Hep3B; type: cell-based; conditions: 72 h
Protocol: as §1, with “experiments. Cells include HeLa cells (cervical cancer), MCF-7 (breast cancer), H1299, H1975, A549 and LLC-1 (lung cancer), HepG2 and Hep3B (liver cancer) and LO2 (normal human hepatocytes).” for “experiments.”

[8] = tested on: Taxol-resistant HCT8 cancer cells; test: MTT cytotoxicity, taxol-resistant HCT8; type: cell-based
Protocol: as §1, §3

[9] = tested on: Taxol-resistant A549 cancer cells; test: MTT cytotoxicity, taxol-resistant A549; type: cell-based
Protocol: as §1, §3

LLC-1 (lung cancer) = test: MTT cytotoxicity assay, LLC-1; type: cell-based; conditions: LLC-1, MTT, 72 h
Protocol: as §1, with “experiments. Cells include HeLa cells (cervical cancer), MCF-7 (breast cancer), H1299, H1975, A549 and LLC-1 (lung cancer), HepG2 and Hep3B (liver cancer) and LO2 (normal human hepatocytes).” for “experiments.”

[10] = tested on: HCT116 p53^+/+ colon cancer cells; test: MTT cytotoxicity, HCT116 p53+/+; type: cell-based, human; conditions: 72 h
Protocol: as §1, §2

H1975 (lung cancer) = test: MTT cytotoxicity assay, H1975; type: cell-based; conditions: 72 h
Protocol: as §1, with “experiments. Cells include HeLa cells (cervical cancer), MCF-7 (breast cancer), H1299, H1975, A549 and LLC-1 (lung cancer), HepG2 and Hep3B (liver cancer) and LO2 (normal human hepatocytes).” for “experiments.”

[11] = tested on: OV2008/C13 cervical cancer cells; test: MTT cytotoxicity, OV2008/C13 (cisplatin-resistant); type: cell-based
Protocol: as §1, §2

[12] = tested on: Taxol-sensitive MCF-7 cancer cells; test: MTT cytotoxicity, taxol-sensitive MCF-7; type: cell-based; conditions: MCF-7, MTT, 72 h
Protocol: as §1

H1299 (lung cancer) = test: MTT cytotoxicity assay, H1299; type: cell-based, human; conditions: 72 h
Protocol: as §1, with “experiments. Cells include HeLa cells (cervical cancer), MCF-7 (breast cancer), H1299, H1975, A549 and LLC-1 (lung cancer), HepG2 and Hep3B (liver cancer) and LO2 (normal human hepatocytes).” for “experiments.”

[13] = tested on: LO2 (normal human hepatocytes); test: MTT cytotoxicity assay, LO2; type: cell-based; conditions: 72 h
Protocol: as §1, with “experiments. Cells include HeLa cells (cervical cancer), MCF-7 (breast cancer), H1299, H1975, A549 and LLC-1 (lung cancer), HepG2 and Hep3B (liver cancer) and LO2 (normal human hepatocytes).” for “experiments.”

[14] = tested on: cisplatin-resistant SGC-7901 gastric cancer cells; test: MTT cytotoxicity, cisplatin-resistant SGC-7901; type: cell-based
Protocol: as §1, §3

SMILES: Cc1ccnc(-c2cc(C)ccn2)c1.Cc1ccnc(-c2cc(C)ccn2)c1.Cc1ccnc(-c2cc(C)ccn2)c1.F[P-](F)(F)(F)(F)F.F[P-](F)(F)(F)(F)F.F[P-](F)(F)(F)(F)F.[Co+3] [complex (IV), [Co^III(4,4′-Me2-Bpy)3.](PF6)3]
- cell invasion (fluorescence signal of invaded cells) [1]: dose-dependently decrease the cell fluorescence signal
- IC50 [2]: 7.62 µM
- endogenous LC3-II puncta formation (autophagy induction) [3]: induce autophagy in dose-dependent manner
- IC50 ([4]; MCF-7, MTT, 72 h): 2.71 µM
- Resistant Factor ([4]; MCF-7, IC50 taxol-resistant over IC50 taxol-sensitive): 0.68
- IC50 ([5]; A2780, MTT, 72 h): 10.7 µM
- Resistant Factor ([5]; A2780, cisplatin-resistant over cisplatin-sensitive): 0.87
- IC50 (MCF-7 (breast cancer)): 6.03 µM
- IC50 [6]: 11.1 µM
- IC50 [7]: 11.9 µM
- IC50 (Hep 3B (liver cancer)): 3.7 µM
- IC50 ([8]; HCT8, MTT, 72 h): 1.22 µM
- Resistant Factor ([8]; HCT8, IC50 taxol-resistant over IC50 taxol-sensitive): 0.36
- IC50 ([9]; A549, MTT, 72 h): 2.85 µM
- Resistant Factor ([9]; A549, IC50 taxol-resistant over IC50 taxol-sensitive): 0.25
- IC50 (LLC-1 (lung cancer)): 3.39 µM
- IC50 [10]: 15.4 µM
- IC50 (H1975 (lung cancer)): 8.84 µM
- IC50 ([11]; OV2008/C13, MTT, 72 h): 7.59 µM
- Resistant Factor ([11]; OV2008/C13 over OV2008): 1.0
- IC50 [12]: 4 µM
- IC50 (H1299 (lung cancer)): 2.84 µM
- IC50 [13]: 13.2 µM
- IC50 ([14]; SGC-7901, MTT, 72 h): 12.6 µM
- Resistant Factor ([14]; SGC-7901, cisplatin-resistant over cisplatin-sensitive): 1.14
